Measurements published in patent US20030069194A1, “Inhibition of viral replication by targeting RNA-DNA complexes” (priority 2001, published 2003).
Where a name gives a salt, the structure may show the parent alone.

Assays:
[1] = system: 18C-18R duplex (RNase H substrate of HIV-1 RT); assay: RT-induced RNase H cleavage of the 18C-18R duplex (gel assay); type: biochemical; settings: for hierarchy of the extent of inhibition of RT-induced cleavage: 18C-18R duplex, aminoglycosides 312.5 μM, FIG. 1b, 1d; for inhibition of RT-induced cleavage at the primary site: FIG. 1c
Description: The first model oligonucleotide was a 18mer chimeric duplex (18C-18R). 18C-18R mimics a RNase H substrate during minus-strand strong-stop synthesis. (FIG. 1a). Mueller, U. et al. Crystal structure of an eight-base pair duplex containing the 3′-DNA RNA-5′ junction formed during initiation of minus-strand synthesis of HIV replication, Biochemistry 37,12005-12011 (1998). […] Note that RT cleaves the RNA strand (18R) opposite the chimeric RNA-DNA strand (18C) at three sites (FIGS. 1a, b). The primary cleavage site lies between base positions +1 and +2 (counting from the RNA-DNA junction in the 5′ direction on the cleaved RNA strand). Two other minor cleavage sites lie between positions +3 and +4 and between positions −1 and +1, with the former site being cleaved to a greater extent than the latter site. Götte, M. et al., HIV-1 Reverse transcriptase-associated RNase H cleaves RNA/RNA in arrested complexes: Implications for the mechanism by which RNase H discriminates between RNA/RNA and RNA/DNA, EMBO J. 14, 833-841 (1995).
Recombinant HIV-1 RT p66 was isolated from Escherichia coli JM 109. Pandey, V. N. et al, Role of methionine 184 of human immunodeficiency virus type-1 reverse transcriptase in the polymerase function and fidelity of DNA synthesis, Biochemistry 35, 2168-2179 (1996). The 18C and 18R oligonucleotides were purchased from Dharmacon Research, Inc. (Lafayette, Colo.). The 18D oligonucleotide was obtained from Integrated DNA Technologies, Inc. (Coralville, Iowa). Neomycin trisulfate trihydrate, the free base of tobramycin, paromomycin sulfate, and kanamycin B sulfate were obtained from Fluka, while kanamycin A monosulfate and ribostamycin sulfate dihydrate were obtained from Sigma.
The RNase H activity of RT was assayed in a 10 μl reaction mixture containing 10 mM PIPES (pH 6.0) and 5 mM MgCl2. Ten pmol of either 18C or 18R were ^32P-labeled at the 5′ end using T4 polynucleotide kinase. For the cleavage experiments, different aminoglycosides were mixed with 0.5 μM of target duplex. A small amount of RT, 0.1 μg, was then added to initiate the cleavage reaction. After incubation at 37° C. for 30 min, the reaction was stopped by addition of 3 M urea containing a mixture of bromophenol blue and xylene cyanol. Denaturation of the 18C-18R duplex required the addition of 5 M urea as well as heating at 95° C. for 5 min prior to gel loading. The cleavage products were resolved in a 10% polyacrylamide gel containing 8 M urea. The gels were subsequently analyzed using a phosphoimager (Molecular Dynamics, Inc.).

[2] = system: HIV-1; settings: chronically infected cells; Zapp et al., Cell 74 (1993); cited from earlier work

Row | Compound | hierarchy of the extent of inhibition of RT-induced cleavage [1] | inhibition of HIV-1 production [2] | inhibition of RT-induced cleavage at the primary site ([1]; neomycin to binding site ratio of 1 (stoichiometric concentration)) [%] | inhibition of RT-induced cleavage at the primary site ([1]; neomycin to binding site ratio of 5)
1 | NC[C@@H]1O[C@H](O[C@H]2[C@@H](O)[C@H](O[C@@H]3[C@@H](O)[C@H](N)C[C@H](N)[C@H]3O[C@H]3O[C@H](CO)[C@@H](O)[C@H](O)[C@H]3N)O[C@@H]2CO)[C@H](N)[C@@H](O)[C@@H]1O [paromomycin, paromomycin sulfate] | neomycin>paromomycin>tobramycin>kanamycin B>ribostamycin>>kanamycin A |  |  | 
2 | Neomycin trisulfate trihydrate | neomycin>paromomycin>tobramycin>kanamycin B>ribostamycin>>kanamycin A | inhibit HIV-1 production in chronically infected cells | 80 | total inhibition
